Data reported in article PMC10200060, “Inhibition of DAMP actions in the tumoral microenvironment using lactoferrin-glycyrrhizin conjugate for glioblastoma therapy” (Biomaterials Research, 2023).

Legend:
[1] = GBM targeted-GL by HPLC in brain homogenate; type: in vivo, orthotopic GBM model mice; details: Balb/c nude, mouse, brain homogenate, iv; orthotopic GBM mice, i.v. GL equivalent 50 mg kg^−1, 10 min after injection; read-out: GL concentration detected in brain homogenate
Method: Orthotopic GBM mice model mice were used for quantification of GBM targeting efficacy. The brain tissue was homogenized in deionized water at a 33.3 w/v (%) using a FastPrep-24 5G (MP biomedical, South Korea). The GL were added to pooled brain homogenate to obtain seven-point calibration curves with a range of 10–1000 ng mL^−1. Then, homogenate (50 μL) was mixed with methanol (100 μL). […] Thereafter, supernatants (100 μL) were mixed with mobile phase solution (900 μL), then filtered with a 0.22 μm syringe filter. Samples were collected in a 2 mL HPLC vial (Screw top vial, Waters, USA) and analyzed by HPLC at 254 nm. […] Mice were sacrificed and brain tissues were collected 10 min after the GL and Lf-GL injection. The samples for quantification were also conducted using the same process as GL standard preparation.

HMGB1 box A = biological target: HMGB1 box A; set-up: method as in PMID 17462578; details: previously reported; cited from earlier work
HMGB1 = assay: HUVEC co-cultured with U87MG: HMGB1 ELISA; type: cell-based, human; details: HUVEC/U87MG co-culture, 100 μM GL equivalent, 24 h (control 217.8 ± 5.9)
Method: (§1) To evaluate the inhibitory effect of Lf-GL on neovascularization in the tumor microenvironment in vitro, U87MG cells were seeded in the Transwell® insert chambers that were 6.5 mm in diameter and had 0.4 μm pore sizes (seeding density: 2.5 × 10^4 cells per well, Corning). HUVECs were seeded in the Transwell basal chamber (seeding density: 5.0 × 10^4 cells per well). GL, Lf, or Lf-GL (100 × 10^–6 M of GL equivalent concentration) were added to the insert chamber, and cells were incubated for 24 h. CCK-8 assay and HMGB1 ELISA were conducted at the basal chamber.

HUVEC = HUVEC co-cultured with U87MG: CCK-8 at basal chamber; type: cell-based, human; details: HUVEC/U87MG Transwell co-culture, 100 μM GL equivalent, 24 h
Method: as §1

[2] = biological target: T1, human recombinant HMGB1 protein (Homo sapiens, UniProt P09429); assay: SPR binding affinity against HMGB1; details: SPR, HMGB1 immobilized
T1 construct: purchased Abcam
T1 sequence (P09429 1-215): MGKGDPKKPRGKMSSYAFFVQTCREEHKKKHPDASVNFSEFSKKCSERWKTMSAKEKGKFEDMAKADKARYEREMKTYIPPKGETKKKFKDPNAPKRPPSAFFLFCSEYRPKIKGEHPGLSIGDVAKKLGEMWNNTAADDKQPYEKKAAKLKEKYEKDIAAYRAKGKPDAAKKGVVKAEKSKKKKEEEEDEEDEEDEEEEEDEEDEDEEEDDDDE
Method: To confirm the binding affinity of Lf-GL to HMGB1, Surface Plasmon Resonance (SPR) was conducted at WoojungBSC (Korea). The Reichert SR7500DC system (Reichert technologies, NA, USA) and Scrubber2 software (Biologic software, FRA) were used, and a CMDH chip (Cat #: 13,206,066, Reichert technologies) was used for immobilization of the human recombinant HMGB1 protein (Abcam). HMGB1 protein was used as a ligand, and the analytes were HMGB1 antibody (Abcam), GL, Lf and Lf-GL conjugate. The immobilization buffer was S.A. (10 × 10^–3 M, pH 4.5), and the running buffer was PBS (pH 7.4). The flow rate of the analyte was 30 μL min^−1. The association and dissociation time were 3 min each, and measurements were conducted at room temperature. Results are expressed in response units (RU) over time.
Fig. S5. Binding affinity against HMGB1. Surface Plasmon Resonance (SPR) was conducted at WoojungBSC (Korea). The Reichert SR7500DC system (Reichert technologies, NA, USA) and Scrubber2 software(Biologic software, FRA) were used and the CMDH chip (Cat #: 13206066, Reichert technologies) was used for immobilization of the human recombinant HMGB1 protein (Abcam). HMGB1 protein was used as ligand and analytes were HMGB1 antibody (Abcam), GL, Lf and Lf-GL conjugate. Immobilization buffer was 10 mM S.A. (pH 4.5) and running buffer was 1× PBS. The flow rate of the analyte was 30 μL min^-1. The association and dissociation time were 3 min each and conducted at room temperature. Results are expressed in response units (RU) over time.

CC1(C)[C@@H](O[C@H]2O[C@H](C(=O)O)[C@@H](O)[C@H](O)[C@H]2O[C@@H]2O[C@H](C(=O)O)[C@@H](O)[C@H](O)[C@H]2O)CC[C@]2(C)[C@H]3C(=O)C=C4[C@@H]5C[C@@](C)(C(=O)O)CC[C@]5(C)CC[C@@]4(C)[C@]3(C)CC[C@@H]12 [GL, Glycyrrhizin]
concentration at 10 min [1]: 9800 ± 2300 ng/mL
Kd (HMGB1 box A): 170 ± 3 µM
HMGB1 level in medium (HMGB1): 190.7 ± 19.0 ng/mL
Reduction of endothelial cell proliferation (HUVEC): 10.7 ± 2.9%
Kd, dissociation rate constant ([2]; PBS pH 7.4, room temperature): 0.00283 ± 3e-05 s⁻¹
kon ([2]; PBS pH 7.4, room temperature, read-out: Ka, association rate constant): 5.3 ± 0.1 M⁻¹ s⁻¹
Kd ([2]; read-out: KD, equilibrium dissociation constant (KD = Kd Ka^−1)): 540 ± 20 µM
